Key:
Assay in all cases: relative viability (nuclei count vs DMSO), 5 days (fraction); higher = more cells survive
Trametinib + Foretinib = compound: CC(=O)Nc1cccc(-n2c(=O)n(C3CC3)c(=O)c3c(Nc4ccc(I)cc4F)n(C)c(=O)c(C)c32)c1 [Trametinib] + COc1cc2c(Oc3ccc(NC(=O)C4(C(=O)Nc5ccc(F)cc5)CC4)cc3F)ccnc2cc1OCCCN1CCOCC1 [Foretinib] (partner 0.25 µM)
In short: (§1)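 Medians of duplicate plates are given as relative viability. That measure is the nuclei count in treated wells divided by the count in vehicle wells. Counts were taken on 4× images of lung cancer cell lines in 1536-well plates, 5 days after pin-tool dosing the day after seeding with one drug alone or a fixed anchor-drug dose plus five library-drug doses (not always all listed) in √10 steps.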

Trametinib + AZD7762 = compound: CC(=O)Nc1cccc(-n2c(=O)n(C3CC3)c(=O)c3c(Nc4ccc(I)cc4F)n(C)c(=O)c(C)c32)c1 [Trametinib] + NC(=O)Nc1cc(-c2cccc(F)c2)sc1C(=O)N[C@H]1CCCNC1 [AZD7762] (partner 0.2 µM)
In short: as §1

[1] = compound: CN1C=C(C2=CC=CC=C21)/C=C\3/C4=C(C=CC=N4)NC3=O + CS(=O)(=O)CCNCc1ccc(-c2ccc3ncnc(Nc4ccc(OCc5cccc(F)c5)c(Cl)c4)c3c2)o1 [Lapatinib] (partner 2 µM)
In short: as §1

[2] = compound: CN1C=C(C2=CC=CC=C21)/C=C\3/C4=C(C=CC=N4)NC3=O + CC(C)C[C@H](NC(=O)[C@H](Cc1ccccc1)NC(=O)c1cnccn1)B(O)O [Bortezomib] (partner 0.002 µM)
In short: as §1

NCI-H838
relative viability (Trametinib + Foretinib; first compound 0.0025 µM): 0.921
relative viability (Trametinib + Foretinib; first compound 0.007906 µM): 0.889
relative viability (Trametinib + Foretinib; first compound 0.025 µM): 0.795
relative viability (Trametinib + Foretinib; first compound 0.07906 µM): 0.797
relative viability (Trametinib + Foretinib; first compound 0.25 µM): 0.638
relative viability (Trametinib + AZD7762; first compound 0.0025 µM): 0.943
relative viability (Trametinib + AZD7762; first compound 0.007906 µM): 0.827
relative viability (Trametinib + AZD7762; first compound 0.025 µM): 0.858
relative viability (Trametinib + AZD7762; first compound 0.07906 µM): 0.858
relative viability (Trametinib + AZD7762; first compound 0.25 µM): 0.697
relative viability ([1]; first compound 0.02 µM): 0.774
relative viability ([1]; first compound 0.06325 µM): 0.9
relative viability ([1]; first compound 0.2 µM): 0.813
relative viability ([1]; first compound 0.6325 µM): 0.785
relative viability ([1]; first compound 2 µM): 0.896
relative viability ([2]; first compound 0.02 µM): 0.79
relative viability ([2]; first compound 0.06325 µM): 0.769
relative viability ([2]; first compound 0.2 µM): 0.835
relative viability ([2]; first compound 0.6325 µM): 0.785
relative viability ([2]; first compound 2 µM): 0.818

PC-14
relative viability (Trametinib + Foretinib; first compound 0.0025 µM): 0.911
relative viability (Trametinib + Foretinib; first compound 0.007906 µM): 0.823
relative viability (Trametinib + Foretinib; first compound 0.025 µM): 0.809
relative viability (Trametinib + Foretinib; first compound 0.07906 µM): 0.885
relative viability (Trametinib + Foretinib; first compound 0.25 µM): 0.693
relative viability (Trametinib + AZD7762; first compound 0.0025 µM): 0.354
relative viability (Trametinib + AZD7762; first compound 0.007906 µM): 0.274
relative viability (Trametinib + AZD7762; first compound 0.025 µM): 0.224
relative viability (Trametinib + AZD7762; first compound 0.07906 µM): 0.193
relative viability (Trametinib + AZD7762; first compound 0.25 µM): 0.203
relative viability ([1]; first compound 0.02 µM): 0.262
relative viability ([1]; first compound 0.06325 µM): 0.289
relative viability ([1]; first compound 0.2 µM): 0.256
relative viability ([1]; first compound 0.6325 µM): 0.275
relative viability ([1]; first compound 2 µM): 0.315
relative viability ([2]; first compound 0.02 µM): 0.826
relative viability ([2]; first compound 0.06325 µM): 0.831
relative viability ([2]; first compound 0.2 µM): 0.981
relative viability ([2]; first compound 0.6325 µM): 0.898
relative viability ([2]; first compound 2 µM): 0.991

NCI-H1915
relative viability (Trametinib + Foretinib; first compound 0.0025 µM): 1.11
relative viability (Trametinib + Foretinib; first compound 0.007906 µM): 0.781
relative viability (Trametinib + Foretinib; first compound 0.025 µM): 0.538
relative viability (Trametinib + Foretinib; first compound 0.07906 µM): 0.596
relative viability (Trametinib + Foretinib; first compound 0.25 µM): 0.298
relative viability (Trametinib + AZD7762; first compound 0.0025 µM): 0.702
relative viability (Trametinib + AZD7762; first compound 0.007906 µM): 0.715
relative viability (Trametinib + AZD7762; first compound 0.025 µM): 0.405
relative viability (Trametinib + AZD7762; first compound 0.07906 µM): 0.365
relative viability (Trametinib + AZD7762; first compound 0.25 µM): 0.218
relative viability ([1]; first compound 0.02 µM): 0.921
relative viability ([1]; first compound 0.06325 µM): 0.98
relative viability ([1]; first compound 0.2 µM): 0.898
relative viability ([1]; first compound 0.6325 µM): 1.09
relative viability ([1]; first compound 2 µM): 1.05
relative viability ([2]; first compound 0.02 µM): 0.913
relative viability ([2]; first compound 0.06325 µM): 1
relative viability ([2]; first compound 0.2 µM): 0.962
relative viability ([2]; first compound 0.6325 µM): 1.11
relative viability ([2]; first compound 2 µM): 1.15

201T
relative viability (Trametinib + Foretinib; first compound 0.0025 µM): 1.05
relative viability (Trametinib + Foretinib; first compound 0.007906 µM): 1
relative viability (Trametinib + Foretinib; first compound 0.025 µM): 1.02
relative viability (Trametinib + Foretinib; first compound 0.07906 µM): 0.815
relative viability (Trametinib + Foretinib; first compound 0.25 µM): 0.715
relative viability (Trametinib + AZD7762; first compound 0.0025 µM): 0.632
relative viability (Trametinib + AZD7762; first compound 0.007906 µM): 0.607
relative viability (Trametinib + AZD7762; first compound 0.025 µM): 0.473
relative viability (Trametinib + AZD7762; first compound 0.07906 µM): 0.592
relative viability (Trametinib + AZD7762; first compound 0.25 µM): 0.557
relative viability ([1]; first compound 0.02 µM): 0.993
relative viability ([1]; first compound 0.06325 µM): 1.05
relative viability ([1]; first compound 0.2 µM): 1.04
relative viability ([1]; first compound 0.6325 µM): 1.06
relative viability ([1]; first compound 2 µM): 1.04
relative viability ([2]; first compound 0.02 µM): 1.02
relative viability ([2]; first compound 0.06325 µM): 1.18
relative viability ([2]; first compound 0.2 µM): 1.07
relative viability ([2]; first compound 0.6325 µM): 1.16
relative viability ([2]; first compound 2 µM): 1.09

NCI-H1437
relative viability (Trametinib + Foretinib; first compound 0.0025 µM): 1.24
relative viability (Trametinib + Foretinib; first compound 0.007906 µM): 1.06
relative viability (Trametinib + Foretinib; first compound 0.025 µM): 0.754
relative viability (Trametinib + Foretinib; first compound 0.07906 µM): 0.664
relative viability (Trametinib + Foretinib; first compound 0.25 µM): 0.588
relative viability (Trametinib + AZD7762; first compound 0.0025 µM): 1.13
relative viability (Trametinib + AZD7762; first compound 0.007906 µM): 0.981
relative viability (Trametinib + AZD7762; first compound 0.025 µM): 0.625
relative viability (Trametinib + AZD7762; first compound 0.07906 µM): 0.466
relative viability (Trametinib + AZD7762; first compound 0.25 µM): 0.454
relative viability ([1]; first compound 0.02 µM): 0.837
relative viability ([1]; first compound 0.06325 µM): 0.842
relative viability ([1]; first compound 0.2 µM): 0.708
relative viability ([1]; first compound 0.6325 µM): 0.841
relative viability ([1]; first compound 2 µM): 0.938
relative viability ([2]; first compound 0.02 µM): 0.629
relative viability ([2]; first compound 0.06325 µM): 0.613
relative viability ([2]; first compound 0.2 µM): 0.475
relative viability ([2]; first compound 0.6325 µM): 0.511
relative viability ([2]; first compound 2 µM): 0.54

A-427
relative viability (Trametinib + Foretinib; first compound 0.0025 µM): 1
relative viability (Trametinib + Foretinib; first compound 0.007906 µM): 0.747
relative viability (Trametinib + Foretinib; first compound 0.025 µM): 0.619
relative viability (Trametinib + Foretinib; first compound 0.07906 µM): 0.517
relative viability (Trametinib + Foretinib; first compound 0.25 µM): 0.448
relative viability (Trametinib + AZD7762; first compound 0.0025 µM): 0.662
relative viability (Trametinib + AZD7762; first compound 0.007906 µM): 0.573
relative viability (Trametinib + AZD7762; first compound 0.025 µM): 0.525
relative viability (Trametinib + AZD7762; first compound 0.07906 µM): 0.373
relative viability (Trametinib + AZD7762; first compound 0.25 µM): 0.371
relative viability ([1]; first compound 0.02 µM): 0.972
relative viability ([1]; first compound 0.06325 µM): 1.04
relative viability ([1]; first compound 0.6325 µM): 0.998
relative viability ([1]; first compound 2 µM): 1.07
relative viability ([2]; first compound 0.02 µM): 0.939
relative viability ([2]; first compound 0.06325 µM): 0.9
relative viability ([2]; first compound 0.6325 µM): 1.03
relative viability ([2]; first compound 2 µM): 1.21

HCC-366
relative viability (Trametinib + Foretinib; first compound 0.0025 µM): 0.875
relative viability (Trametinib + Foretinib; first compound 0.007906 µM): 0.765
relative viability (Trametinib + Foretinib; first compound 0.025 µM): 0.768
relative viability (Trametinib + Foretinib; first compound 0.07906 µM): 0.49
relative viability (Trametinib + Foretinib; first compound 0.25 µM): 0.228
relative viability (Trametinib + AZD7762; first compound 0.0025 µM): 0.24
relative viability (Trametinib + AZD7762; first compound 0.007906 µM): 0.24
relative viability (Trametinib + AZD7762; first compound 0.025 µM): 0.323
relative viability (Trametinib + AZD7762; first compound 0.07906 µM): 0.167
relative viability (Trametinib + AZD7762; first compound 0.25 µM): 0.143
relative viability ([1]; first compound 0.02 µM): 0.816
relative viability ([1]; first compound 0.06325 µM): 0.976
relative viability ([1]; first compound 0.2 µM): 0.952
relative viability ([1]; first compound 0.6325 µM): 1.15
relative viability ([1]; first compound 2 µM): 1.08
relative viability ([2]; first compound 0.02 µM): 0.892
relative viability ([2]; first compound 0.06325 µM): 0.985
relative viability ([2]; first compound 0.2 µM): 1.08
relative viability ([2]; first compound 0.6325 µM): 1.16
relative viability ([2]; first compound 2 µM): 1.08

BEN
relative viability (Trametinib + Foretinib; first compound 0.0025 µM): 0.757
relative viability (Trametinib + Foretinib; first compound 0.007906 µM): 0.727
relative viability (Trametinib + Foretinib; first compound 0.025 µM): 0.302
relative viability (Trametinib + Foretinib; first compound 0.07906 µM): 0.408
relative viability (Trametinib + Foretinib; first compound 0.25 µM): 0.499
relative viability (Trametinib + AZD7762; first compound 0.0025 µM): 0.703
relative viability (Trametinib + AZD7762; first compound 0.007906 µM): 0.652
relative viability (Trametinib + AZD7762; first compound 0.025 µM): 0.412
relative viability (Trametinib + AZD7762; first compound 0.07906 µM): 0.525
relative viability (Trametinib + AZD7762; first compound 0.25 µM): 0.635
relative viability ([1]; first compound 0.02 µM): 0.685
relative viability ([1]; first compound 0.06325 µM): 0.718
relative viability ([1]; first compound 0.2 µM): 0.559
relative viability ([1]; first compound 0.6325 µM): 0.585
relative viability ([1]; first compound 2 µM): 0.785
relative viability ([2]; first compound 0.02 µM): 0.82
relative viability ([2]; first compound 0.06325 µM): 0.557
relative viability ([2]; first compound 0.2 µM): 0.64
relative viability ([2]; first compound 0.6325 µM): 0.593
relative viability ([2]; first compound 2 µM): 0.917

From the supplement of paper PMC10307832
